Measurements as given in US7989179B2, “LXR ligand testing method” (Daiichi Sankyo Company, Limited, priority 2005, dated 2011).

Experiments:
THP-1 cells = experiment: Cholesterol efflux assay; format: cell-based; details: compound final concentration 0.1 μM, 24 hours
Experimental: 3×10^5 THP-1 cells (ATCC No.: TIB-202) were disseminated in a 96-well white plate (Costar) followed by the addition of 200 nM Phorbol 12-Myristate 13-Acetate (Sigma) and culturing for 24 hours at 37° C. in a CO2 incubator. […] Following completion of culturing, 100 μl of PBS containing 0.2% bovine serum albumin (hereinafter referred to as “BSA”, (Sigma Chemical)) were added to each well to wash the cells. Next, 100 μl of RPMI 1640 containing Apolipoprotein A1 (hereinafter referred to as “ApoA1”, (Biogenesis)) at a final concentration of 10 μg/ml, or RPMI 1640 not containing ApoA1, were added to each well. […] Following completion of culturing, the plate was centrifuged for 5 minutes at 1,000 rpm and 4° C. 75 μl of medium in the form of the centrifuged supernatant were transferred to a 96-well Luma plate (Packard) and allowed to dry. […] 20 (Packard) were added to each well of the plate containing the washed cells and allowed to stand overnight, followed by measuring the radioactivity of the medium and cells with a scintillation counter (Top Count, Packard). Percent (%) efflux was calculated from the measured values using the calculation formula shown below. % efflux=(Specific radioactivity of medium(CPM)/75×100)/(Specific radioactivity of medium(CPM)+specific radioactivity of cells(CPM))×100 […]

[1] = molecular target: T1, heterodimer comprising LXRα and RXRα (Homo sapiens, UniProt Q13133, A196R); experiment: FRET assay of coactivator peptide binding to His-LXRα/FLAG-RXRα; format: biochemical
T1 construct: amino acid nos; made in house; host or cells: Escherichia coli BL21(DE3)
T1 sequence (Q13133 164-447 A196R): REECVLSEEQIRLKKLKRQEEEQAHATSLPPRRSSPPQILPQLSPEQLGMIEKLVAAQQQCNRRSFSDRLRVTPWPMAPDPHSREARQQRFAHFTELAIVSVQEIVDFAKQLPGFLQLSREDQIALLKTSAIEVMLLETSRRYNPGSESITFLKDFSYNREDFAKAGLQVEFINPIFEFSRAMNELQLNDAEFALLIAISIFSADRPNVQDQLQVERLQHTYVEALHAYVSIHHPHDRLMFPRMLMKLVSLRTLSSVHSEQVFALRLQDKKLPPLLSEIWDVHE
T1 sequence (P19793 201-462 partner limits assumed): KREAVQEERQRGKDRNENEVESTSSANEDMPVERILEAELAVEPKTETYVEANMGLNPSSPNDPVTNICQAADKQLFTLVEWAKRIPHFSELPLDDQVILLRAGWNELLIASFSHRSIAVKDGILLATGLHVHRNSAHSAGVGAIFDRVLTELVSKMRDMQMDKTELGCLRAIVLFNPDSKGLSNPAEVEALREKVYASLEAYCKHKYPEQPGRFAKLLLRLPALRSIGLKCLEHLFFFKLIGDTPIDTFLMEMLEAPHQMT
Experimental: 8 μl of LXRα reaction solution (0.05 μl of 4 μM His-LXRα and FLAG-RXRα mixed solution, 1.00 μl of 10×PBS (Sigma Chemical), 2.50 μl of 2 M KF (Wako Pure Chemical Industries), 0.10 μl of 10% NP40 (Sigma Chemical), 0.15 μl of anti-His tag antibody (CIS Bio International) and 4.20 μl of H2O) containing the His-LXRα and FLAG-RXRα prepared according to Example 1 were placed in a 384-well assay plate (Greiner Bio-One).
Next, 2 μl of a solution of Compound A (N-(2,2,2-trifluoroethyl)-N-{4-[2,2,2-trifluoro-1-hydroxy-1-(trifluoromethyl)ethyl]phenyl}benzene sulfonamide (Compound 12 described on page 55 of International Publication WO2000/054759) or Compound B (3-chloro-4-(3-(2-propyl-3-trifluoromethyl-6-benz-[4,5]-isooxazoloxy)propylthio)phenylacetic acid (a compound described in Example 20 on page 70 of International Publication WO1997/028137), dissolved to a concentration of 10 μM in dimethyl sulfoxide (hereinafter referred to as “DMSO”), were added to each well of a 384-well assay plate followed by incubating for 1 hour at room temperature.
Next, 10 μl of peptide reaction solution (1.00 μl of 5 μM peptide, 1.00 μl of 10×PBS, 2.50 μl of 2 M KF, 0.10 μl of 10% NP40, 0.20 μl of streptavidin (CIS Bio International) and 5.20 μl of H2O) were added to each well of the 384-well assay plate and incubated for 17 hours at 4° C. The peptide added here was comprising of any of the amino acid sequences of (a) to (g) below, and the amino acid of the N-terminal was biotinylated.
Following completion of incubation, the assay plate was subjected to excitation light at 337 nm using a fluorescent plate reader (Envision, Perkin-Elmer), and fluorescent absorbance at 665 nm and 620 nm was measured to determine the binding capacity between the protein and the peptide.
The value obtained by multiplying 1000 by the value resulting from dividing the measured value at 665 nm when applying excitation light at 337 nm by the measured value at 620 nm was determined. This value was then divided by the value determined by the same method when only DMSO was added without adding LXR ligand (Compound A or Compound B), and this value was then multiplied by 100 and indicated as the percentage relative to the control (% of control) as shown in Table 6.
The value for % of control determined here is the value, represented by a percentage, that indicates the ratio of the increase in the amount of coactivator bound to LXRα that results from adding LXR ligand, and the larger this value, the larger the amount of coactivator that binds to LXRα.
(1) According to the same method as Example 2) (using the following peptides (h) to (m), instead of the peptides (a) to (g) in Example 2), the amount of coactivator bound to the heterodimer LXRα and RXRα were determined.

[2] = molecular target: T2, heterodimer comprising LXRβ and RXRα (Homo sapiens, UniProt P55055, DUP175-175); experiment: FRET assay of coactivator peptide binding to His-LXRβ/FLAG-RXRα; format: biochemical
T2 construct: made in house; host or cells: Escherichia coli BL21(DE3)
T2 sequence (P55055 with tags, fused parts or gaps DUP175-175): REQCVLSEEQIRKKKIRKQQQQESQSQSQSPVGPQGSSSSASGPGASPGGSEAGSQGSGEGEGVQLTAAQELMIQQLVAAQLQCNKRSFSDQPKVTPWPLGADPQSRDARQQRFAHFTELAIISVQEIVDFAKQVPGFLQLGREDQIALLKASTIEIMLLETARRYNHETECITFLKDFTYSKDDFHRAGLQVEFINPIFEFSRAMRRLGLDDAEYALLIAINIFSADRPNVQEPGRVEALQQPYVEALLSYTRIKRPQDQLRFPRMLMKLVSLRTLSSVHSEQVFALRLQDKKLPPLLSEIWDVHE
T2 sequence (P19793 201-462 partner limits assumed): T1 sequence (P19793 201-462 partner limits assumed)
Experimental: 8 μl of LXRβ reaction solution (0.025 μl of 8 μM His-LXRβ and FLAG-RXRα mixed solution, 1.00 μl of 10×PBS, 2.50 μl of 2 M KF, 0.10 μl of 10% NP40, 0.15 μl of anti-His tag antibody and 4.23 μl of H2O) containing the His-LXRβ and FLAG-RXRα prepared according to Example 1 were placed in a 384-well assay plate (Greiner Bio-One) and measured according to the same method as Example 2 to determine the % of control (Table 6). There was no significant difference observed in the resulting values between Compound A and Compound B.
(2) […]: According to the same method in Example 3) (using the above peptides (h) to (m), instead of peptides (a) to (g) in Example 3), the amount of the coactivator bound to the heterodimer comprising LXRβ and RXRα were determined. There was no significant difference observed in the resulting values between Compound A and Compound B (Table 7).

[3] = Cynomolgus monkey consecutive daily administration study; format: in vivo, cynomolgus monkeys; details: for Relative value of LDL Cholesterol in Plasma (% of control group) / Relative value of TG in Plasma (% of control group): male cynomolgus monkeys, force fed, PG/Tween
Experimental: Five to seven year old, male cynomolgus monkeys in groups of 5 animals each were force fed only an administration base (Propylene glycol (Wako Pure Chemical Industries)/Tween 80 (Kao) (volume ratio: 4/1, hereinafter referred to as “PG/Tween”)) (hereinafter referred to as “the control group”), or Compound A or Compound B dissolved in PG/Tween in an amount of 3 mg/kg or 10 mg/kg once a day for 7 days between the hours of 8:00 and 10:00 AM. After fasting for 16 hours starting at 5:00 PM on the 7th day of administration, 1 mL of blood was collected from the cephalic vein with a heparinized syringe followed by centrifuging for 15 minutes at 4° C. and 5000 rpm to obtain plasma.
The levels of LDL cholesterol and triglycerides in the plasma were measured with an auto analyzer (Hitachi Model 7170) followed by calculation of the % of control group (Tables 8 and 9).

[4] = peptide ASC2 NR-1, 2 μl of 10 μM compound solution in DMSO
[5] = peptide ASC2 NR-2, 2 μl of 10 μM compound solution in DMSO
[6] = peptide PGC-1α, 2 μl of 10 μM compound solution in DMSO
[7] = peptide SRC1-2, 2 μl of 10 μM compound solution in DMSO
[8] = peptide SRC1-3, 2 μl of 10 μM compound solution in DMSO
[9] = peptide SRC1-4, 2 μl of 10 μM compound solution in DMSO
[10] = peptide TIF2, 2 μl of 10 μM compound solution in DMSO

## O=S(=O)(c1ccccc1)N(CC(F)(F)F)c1ccc(C(O)(C(F)(F)F)C(F)(F)F)cc1 [Compound A, N-(2,2,2-trifluoroethyl)-N-{4-[2,2,2-trifluoro-1-hydroxy-1-(trifluoromethyl)ethyl]phenyl}benzenesulfonamide]
THP-1 cells
  relative cholesterol efflux activity (% efflux, Compound A at 1 μM = 100): 86%
[1]; Example 2, peptides (a) to (g)
  effect on amount of coactivator bound to LXRα (result in words): increases the amount of coactivator bound to LXRα
[1]; peptide ACTR NRB3, same method as Example 2
  LXRα (% of control): 167 % of control
[1]; [4]
  LXRα (% of control): 155.8 % of control
[1]; [5]
  LXRα (% of control): 254.0 % of control
[1]; peptide DAX1, same method as Example 2
  LXRα (% of control): 158 % of control
[1]; peptide PERC NRB2, same method as Example 2
  LXRα (% of control): 127 % of control
[1]; [6]
  LXRα (% of control): 361.7 % of control
[1]; peptide PNRC, same method as Example 2
  LXRα (% of control): 140 % of control
[1]; [7]
  LXRα (% of control): 267.0 % of control
[1]; [8]
  LXRα (% of control): 181.3 % of control
[1]; [9]
  LXRα (% of control): 207.3 % of control
[1]; [10]
  LXRα (% of control): 266.7 % of control
[1]; peptide TIF2 NRB2, same method as Example 2
  LXRα (% of control): 268 % of control
[1]; peptide TRAP220, same method as Example 2
  LXRα (% of control): 131 % of control
[2]; peptide ACTR NRB3, same method as Example 3
  LXRβ (% of control): 129 % of control
[2]; [4]
  LXRβ (% of control): 114.5 % of control
[2]; [5]
  LXRβ (% of control): 120.4 % of control
[2]; peptide DAX1, same method as Example 3
  LXRβ (% of control): 116 % of control
[2]; peptide PERC NRB2, same method as Example 3
  LXRβ (% of control): 104 % of control
[2]; [6]
  LXRβ (% of control): 191.0 % of control
[2]; peptide PNRC, same method as Example 3
  LXRβ (% of control): 109 % of control
[2]; [7]
  LXRβ (% of control): 120.4 % of control
[2]; [8]
  LXRβ (% of control): 110.6 % of control
[2]; [9]
  LXRβ (% of control): 154.6 % of control
[2]; [10]
  LXRβ (% of control): 107.9 % of control
[2]; peptide TIF2 NRB2, same method as Example 3
  LXRβ (% of control): 125 % of control
[2]; peptide TRAP220, same method as Example 3
  LXRβ (% of control): 111 % of control
[3]; cynomolgus monkeys, 7 days administration
  effect on plasma LDL cholesterol and triglyceride concentration (result in words): increase LDL cholesterol concentration and triglyceride concentration in the plasma
[3]; 3 mg/kg once a day for 7 days
  Relative value of LDL Cholesterol in Plasma (% of control group): 137%
  Relative value of TG in Plasma (% of control group): 429%
[3]; 10 mg/kg once a day for 7 days
  Relative value of LDL Cholesterol in Plasma (% of control group): 207%
  Relative value of TG in Plasma (% of control group): 661%
